In article PMC4278837, “A Cyclic Peptidic Serine Protease Inhibitor: Increasing Affinity by Increasing Peptide Flexibility” (PLoS ONE, 2014):
Bridge positions count the residues as written; N and C are the ends. Square brackets hold non-standard residues; d marks the D form. Peptide text beside a SMILES is read from it. Phe(4-guanidino) = N=C(N)Nc1ccc(C[C@H](N)C(=O)O)cc1

Columns and labels:
huPA-H99Y Q192A = huPA-H99Y Q192A (Homo sapiens, UniProt P00749, H272Y/Q373A); assay: Ki for inhibition of huPA-H99Y-Q192A, chromogenic substrate; format: biochemical; set-up: To ensure that the uPAs purified from the conditioned media were completely in the two-chain form, they were treated with plasmin; hexa-His (C); made in house; host or cells: HEK293 6E suspension cells; conditions: 37°C; means ± S.D.; read-out: K i for inhibition of huPA-H99Y-Q192A
Excerpt: (§1) Determination of Ki values
(§2) The initial reaction velocities were monitored at an absorbance of 405 nm. The inhibition constants (K i) were subsequently determined from the non-linear regression analyses of plots for V i/V o versus [I]0, using Equation 2, derived under assumption of competitive inhibition:
(§3) [drawing 2] (2) where V i and V 0 are the reaction velocities in the presence and absence of inhibitor, respectively; [S]0 and [I]0 are the substrate and inhibitor concentrations, respectively; K M is K M for substrate hydrolysis by each protease. In Equation 2, it is assumed that [S]free ≈ [S]0 and [I]free ≈ [I]0.

huPA-H99Y R35A = biological target: T1, huPA-H99Y R35A (Homo sapiens, UniProt P00749, H272Y/R198A); assay: Ki for inhibition of huPA-H99Y-R35A, chromogenic substrate; format: biochemical; conditions: 37°C; means ± S.D.; read-out: K i for inhibition of huPA-H99Y-R35A
T1 construct: To ensure that the uPAs purified from the conditioned media were completely in the two-chain form, they were treated with plasmin; hexa-His (C); made in house; host or cells: HEK293 6E suspension cells
Excerpt: as §1, §2, §3

muPA Y99A = biological target: T2, muPA Y99A (Mus musculus, UniProt P06869, Y274A); assay: Ki for inhibition of muPA-Y99A, chromogenic substrate; format: biochemical, murine; conditions: means ± S.D.; read-out: K i for inhibition of muPA-Y99A
T2 construct: To ensure that the uPAs purified from the conditioned media were completely in the two-chain form, they were treated with plasmin; hexa-His (C); made in house; host or cells: HEK293 6E suspension cells
Excerpt: as §1, §2, §3

muPA = biological target: T3, muPA (Mus musculus, UniProt P06869); assay: Surface plasmon resonance analysis of peptide binding to muPA; set-up: species or system murine; conditions: SPR, 25°C, pH 7.4
T3 construct: To ensure that the uPAs purified from the conditioned media were completely in the two-chain form, they were treated with plasmin; hexa-His (C); made in house; host or cells: HEK293 6E suspension cells
Method: (§4) Surface plasmon resonance (SPR) analysis
(§5) To determine the equilibrium binding constants (KD), the association rate constants (kon) and dissociation rate constants (koff) for peptide binding to uPA, surface plasmon resonance analysis was performed on a Biacore T200 instrument (Biacore, Uppsala, Sweden). A CM5 chip was coupled with the uPA variant (muPA or huPAH99Y) to be analysed, by injecting a concentration of 30 µg/mL uPA in immobilization buffer (10 mM sodium acetate, pH 5.0), aiming for an immobilised level of approximately 500 response units (RU). Immobilisation was followed by surface blocking with ethanolamine. A reference cell was prepared in the same way, without coupling of uPA. Mupain-1 variants in HBS with 0.1% BSA, in a dilution series, were injected at a flow rate of 30 µL per min during 60 s at 25°C. Subsequently, the dissociation was monitored during 600 s. Kinetic constants (k on and k off) were calculated with the Biacore Evaluation Software, using the 1∶1 kinetic fit. The K D values were calculated as k off /k on.

muPA K143A = biological target: T4, muPA K143A (Mus musculus, UniProt P06869, K322A); assay: Ki for inhibition of muPA-K143A, chromogenic substrate; format: biochemical, murine; conditions: means ± S.D.; read-out: K i for inhibition of muPA-K143A
T4 construct: To ensure that the uPAs purified from the conditioned media were completely in the two-chain form, they were treated with plasmin; hexa-His (C); made in house; host or cells: HEK293 6E suspension cells
Excerpt: as §1, §2, §3

huPA-H99Y [1] = biological target: T5, huPA-H99Y (Homo sapiens, UniProt P00749, H272Y); assay: Surface plasmon resonance analysis of peptide binding to huPA-H99Y; conditions: SPR, 25°C, pH 7.4
T5 construct: To ensure that the uPAs purified from the conditioned media were completely in the two-chain form, they were treated with plasmin; hexa-His (C); made in house; host or cells: HEK293 6E suspension cells
Method: as §4, §5

huPA-H99Y V41A = biological target: T6, huPA-H99Y V41A (Homo sapiens, UniProt P00749, H272Y/V208A); assay: Ki for inhibition of huPA-H99Y-V41A, chromogenic substrate; format: biochemical; conditions: 37°C; means ± S.D.; read-out: K i for inhibition of huPA-H99Y-V41A
T6 construct: To ensure that the uPAs purified from the conditioned media were completely in the two-chain form, they were treated with plasmin; hexa-His (C); made in house; host or cells: HEK293 6E suspension cells
Excerpt: as §1, §2, §3

muPA V213T = biological target: T7, muPA V213T (Mus musculus, UniProt P06869, V396T); assay: Ki for inhibition of muPA-V213T, chromogenic substrate; format: biochemical, murine; conditions: means ± S.D.; read-out: K i for inhibition of muPA-V213T
T7 construct: To ensure that the uPAs purified from the conditioned media were completely in the two-chain form, they were treated with plasmin; hexa-His (C); made in house; host or cells: HEK293 6E suspension cells
Excerpt: as §1, §2, §3

huPA-H99Y [2] = biological target: T8, huPA-H99Y (Homo sapiens, UniProt P00749, C299A/H272Y/N322Q); assay: Isothermal titration calorimetry for binding to huPA-H99Y catalytic domain; conditions: ITC, 25°C, pH 7.4
T8 construct: recombinant uPA catalytic domain (residues 159–411), harbouring a H99Y mutation; made in house; host or cells: Pichia pastoris X-33 (secreted)
Method: For these experiments, we used the catalytic domain of huPA-H99Y expressed in and purified from Pichia pastoris strain X-33 (see above). The protein was dissolved in and dialysed against a buffer of 20 mM sodium phosphate, pH 7.4, 140 mM NaCl. The protein concentration was determined by absorbance at 280 nm, using an extinction coefficient of 43810 M^−1cm^−1. The peptides were dissolved in the above-mentioned buffer. All isothermal titration calorimetry experiments were performed with a MicroCal^TM ITC200 instrument equilibrated to a temperature of 25°C (298oK). The concentration of uPA-H99Y catalytic domain used in the 200 µl sample cell was 5–50 µM, depending on the affinity of the ligand. Titrations were performed by injecting 2 µl of the ligand until the total syringe volume of 40 µl was spent. Titration of ligand into buffer was performed to obtain buffer correction. The equilibrium association constant KA and the reaction enthalpy ΔH were calculated by fitting the integrated titration peaks using a one-binding-site model in the ITC ORIGIN7 programme package. The following formulas for Gibbs free energy ΔG were used to analyse the measured energies
[drawing 4] (4) where R is the gas constant and T the absolute temperature. ΔS, the entropic change during the reaction, was calculated using equations 3 and 4 and the measured K A and ΔH values.

muPA wt = biological target: T9, muPA wt (Mus musculus, UniProt P06869); assay: Ki for inhibition of muPA wt, chromogenic substrate; format: biochemical, murine; conditions: means ± S.D.; read-out: K i for inhibition of muPA wt
T9 construct: To ensure that the uPAs purified from the conditioned media were completely in the two-chain form, they were treated with plasmin; hexa-His (C); made in house; host or cells: HEK293 6E suspension cells
Excerpt: as §1, §2, §3

muPA S190A = biological target: T10, muPA S190A (Mus musculus, UniProt P06869, S373A); assay: Ki for inhibition of muPA-S190A, chromogenic substrate; format: biochemical, murine; conditions: means ± S.D.; read-out: K i for inhibition of muPA-S190A
T10 construct: To ensure that the uPAs purified from the conditioned media were completely in the two-chain form, they were treated with plasmin; hexa-His (C); made in house; host or cells: HEK293 6E suspension cells
Excerpt: as §1, §2, §3

huPA-H99Y [3] = biological target: T5, huPA-H99Y; assay: Ki for inhibition of huPA-H99Y, chromogenic substrate S-2444; format: biochemical; conditions: 37°C; means ± S.D.; read-out: K i for inhibition of huPA-H99Y
Excerpt: as §1, §2, §3

muPA K41A = biological target: T11, muPA K41A (Mus musculus, UniProt P06869, K210A); assay: Ki for inhibition of muPA-K41A, chromogenic substrate; format: biochemical, murine; conditions: means ± S.D.; read-out: K i for inhibition of muPA-K41A
T11 construct: To ensure that the uPAs purified from the conditioned media were completely in the two-chain form, they were treated with plasmin; hexa-His (C); made in house; host or cells: HEK293 6E suspension cells
Excerpt: as §1, §2, §3

T3 sequence (P06869 180-433 limits assumed): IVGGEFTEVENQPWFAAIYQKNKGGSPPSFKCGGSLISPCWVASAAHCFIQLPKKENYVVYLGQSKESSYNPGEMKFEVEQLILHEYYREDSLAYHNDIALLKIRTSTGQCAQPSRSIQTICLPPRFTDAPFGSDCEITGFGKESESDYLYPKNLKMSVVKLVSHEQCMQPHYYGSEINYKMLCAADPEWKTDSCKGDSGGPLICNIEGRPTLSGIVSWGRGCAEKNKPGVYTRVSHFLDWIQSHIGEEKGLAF
T3 sequence (P06869 21-178 partner limits assumed): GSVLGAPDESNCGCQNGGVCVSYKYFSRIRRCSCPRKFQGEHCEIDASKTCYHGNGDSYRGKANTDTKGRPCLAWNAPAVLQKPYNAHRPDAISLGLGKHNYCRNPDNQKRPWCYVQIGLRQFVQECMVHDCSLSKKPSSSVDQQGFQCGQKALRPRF
T11 sequence (P06869 180-433 K210A): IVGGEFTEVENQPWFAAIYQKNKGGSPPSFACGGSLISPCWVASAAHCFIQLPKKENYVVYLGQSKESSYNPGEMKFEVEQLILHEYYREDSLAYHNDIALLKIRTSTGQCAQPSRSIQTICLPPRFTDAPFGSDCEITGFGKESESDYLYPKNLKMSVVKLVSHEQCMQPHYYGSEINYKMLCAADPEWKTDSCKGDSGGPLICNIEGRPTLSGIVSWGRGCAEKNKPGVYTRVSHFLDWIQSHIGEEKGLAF
T11 sequence (P06869 21-178 partner limits assumed): as the sequence (P06869 21-178 partner limits assumed) above
T4 sequence (P06869 180-433 K322A): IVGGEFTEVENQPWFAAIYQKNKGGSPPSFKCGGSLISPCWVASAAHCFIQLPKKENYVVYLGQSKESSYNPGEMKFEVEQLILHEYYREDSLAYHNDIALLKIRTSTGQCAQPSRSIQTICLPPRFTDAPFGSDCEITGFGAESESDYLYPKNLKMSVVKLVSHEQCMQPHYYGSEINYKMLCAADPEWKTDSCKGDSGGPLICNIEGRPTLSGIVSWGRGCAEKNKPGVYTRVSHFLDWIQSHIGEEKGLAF
T4 sequence (P06869 21-178 partner limits assumed): as the sequence (P06869 21-178 partner limits assumed) above
T2 sequence (P06869 180-433 Y274A): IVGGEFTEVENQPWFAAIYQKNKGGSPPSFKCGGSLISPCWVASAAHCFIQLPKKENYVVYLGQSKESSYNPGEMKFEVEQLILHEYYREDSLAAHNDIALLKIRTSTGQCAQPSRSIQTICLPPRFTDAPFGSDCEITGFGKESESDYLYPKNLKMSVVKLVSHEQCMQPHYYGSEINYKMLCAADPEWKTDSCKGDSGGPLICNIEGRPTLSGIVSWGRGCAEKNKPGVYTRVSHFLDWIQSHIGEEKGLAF
T2 sequence (P06869 21-178 partner limits assumed): as the sequence (P06869 21-178 partner limits assumed) above
T10 sequence (P06869 180-433 S373A): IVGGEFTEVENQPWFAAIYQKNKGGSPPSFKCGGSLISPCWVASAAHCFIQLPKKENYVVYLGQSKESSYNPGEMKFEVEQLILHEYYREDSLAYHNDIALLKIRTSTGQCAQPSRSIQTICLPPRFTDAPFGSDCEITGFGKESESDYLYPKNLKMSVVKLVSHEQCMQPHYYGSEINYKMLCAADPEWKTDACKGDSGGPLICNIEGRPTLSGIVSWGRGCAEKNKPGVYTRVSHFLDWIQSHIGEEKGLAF
T10 sequence (P06869 21-178 partner limits assumed): as the sequence (P06869 21-178 partner limits assumed) above
T7 sequence (P06869 180-433 V396T): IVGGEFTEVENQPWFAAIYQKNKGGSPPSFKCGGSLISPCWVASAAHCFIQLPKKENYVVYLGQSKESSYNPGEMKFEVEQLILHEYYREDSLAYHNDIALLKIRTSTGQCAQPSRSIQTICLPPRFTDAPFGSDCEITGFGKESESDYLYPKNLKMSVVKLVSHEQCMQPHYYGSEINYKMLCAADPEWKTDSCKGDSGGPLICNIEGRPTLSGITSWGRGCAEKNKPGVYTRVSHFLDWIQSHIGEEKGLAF
T7 sequence (P06869 21-178 partner limits assumed): as the sequence (P06869 21-178 partner limits assumed) above
T9 sequence (P06869 180-433 limits assumed): as the sequence (P06869 180-433 limits assumed) above
T9 sequence (P06869 21-178 partner limits assumed): as the sequence (P06869 21-178 partner limits assumed) above

Structure (SMILES): CC(=O)N[C@H]1CSSC[C@@H](C(N)=O)NC(=O)[C@H](C)NC(=O)[C@H](CC(C)C)NC(=O)[C@H](Cc2ccc(O)cc2)NC(=O)[C@H](Cc2ccc(NC(=N)N)cc2)NC(=O)[C@H](CO)NC(=O)[C@H](Cc2ccc(O)cc2)NC(=O)[C@H](C)NC(=O)[C@@H]2CCCN2C1=O [Mupain-1-12 D9A, CPAYS[4-guanidino-phenyl-alanine]YLAC] (Ac-CPAYS[Phe(4-guanidino)]YLAC-NH2; disulfide 1-10; N-terminus assumed)
- Ki (huPA-H99Y Q192A): 438 ± 79 nM
- Ki (huPA-H99Y R35A): 231 ± 78 nM
- Ki (muPA Y99A): 5890 ± 1310 nM
- k off, muPA (muPA): 3.94±0.30 (3) s^−1, ×10^2
- k on, muPA (muPA): 2.42±1.01 (3) M^−1s^−1, ×10^−5
- Kd (muPA; calculated as k off/k on, read-out: K D, muPA): 177 ± 51 nM
- Ki (muPA K143A): 1000 ± 30 nM
- k off, huPA-H99Y (huPA-H99Y [1]): 7.94±0.39 (3) s^-1, ×10^2
- k on, huPA-H99Y (huPA-H99Y [1]): 5.93±0.33 (3) M^-1s^-1, ×10^-5
- Kd (huPA-H99Y [1]; calculated as k off/k on, read-out: K D, huPA-H99Y): 134 ± 2 nM
- Ki (huPA-H99Y V41A): 478 ± 137 nM
- Ki (muPA V213T): 166 ± 75 nM
- Kd (huPA-H99Y [2]): 138 ± 47 nM
- N (huPA-H99Y [2]): 0.88±0.01 (3)
- TΔS (huPA-H99Y [2]): −18.9±5.1 (3) ^1 kJ/mole
- ΔG (huPA-H99Y [2]): −39.2±0.8 (3) ^1 kJ/mole
- ΔH (huPA-H99Y [2]): −60.1±5.4 (3) ^1 kJ/mole
- Ki (muPA wt): 190 ± 10 nM
- Ki (muPA S190A): 3520 ± 500 nM
- Ki (huPA-H99Y [3]): 186 ± 36 nM
- Ki (muPA K41A): 91 ± 7 nM
